We go through one molecule from patent US8541460B2, “PDK-1/Akt signaling inhibitors” (The Ohio State University, priority 2003, dated 2013).

Common to all, as to assay: NCI DTP cell line screen (SRB), CNS Cancer
One test concerns SNB-19. The format is cell-based, human. Here is the method: (§1) Screening of compounds 70 and 71 against several cancer cell lines The human tumor cell lines of the cancer screening panel are grown in RPMI 1640 medium containing 5% fetal bovine serum and 2 mM L-glutamine. For a typical screening experiment, cells are inoculated into 96 well microtiter plates in 100 μL at plating densities ranging from 5,000 to 40,000 cells/well depending on the doubling time of individual cell lines. After cell inoculation, the microtiter plates are incubated at 37° C., 5% CO2, 95% air and 100% relative humidity for 24 h prior to addition of experimental drugs.
(§2) After 24 h, two plates of each cell line are fixed in situ with TCA, to represent a measurement of the cell population for each cell line at the time of drug addition (Tz). Experimental drugs are solubilized in dimethyl sulfoxide at 400-fold the desired final maximum test concentration and stored frozen prior to use. At the time of drug addition, an aliquot of frozen concentrate is thawed and diluted to twice the desired final maximum test concentration with complete medium containing 50 μg/ml gentamicin. Additional four, 10-fold or ½ log serial dilutions are made to provide a total of five drug concentrations plus control. Aliquots of 100 μl of these different drug dilutions are added to the appropriate microtiter wells already containing 100 μl of medium, resulting in the required final drug concentrations.
(§3) Following drug addition, the plates are incubated for an additional 48 h at 37° C., 5% CO2, 95% air, and 100% relative humidity. For adherent cells, the assay is terminated by the addition of cold TCA. Cells are fixed in situ by the gentle addition of 50 μl of cold 50% (w/v) TCA (final concentration, 10% TCA) and incubated for 60 minutes at 4° C. The supernatant is discarded, and the plates are washed five times with tap water and air dried. Sulforhodamine B (SRB) solution (100 μl) at 0.4% (w/v) in 1% acetic acid is added to each well, and plates are incubated for 10 minutes at room temperature. After staining, unbound dye is removed by washing five times with 1% acetic acid and the plates are air dried. Bound stain is subsequently solubilized with 10 mM trizma base, and the absorbance is read on an automated plate reader at a wavelength of 515 nm. For suspension cells, the methodology is the same except that the assay is terminated by fixing settled cells at the bottom of the wells by gently adding 50 μl of 80% TCA (final concentration, 16% TCA). Using the seven absorbance measurements [time zero, (Tz), control growth, (C), and test growth in the presence of drug at the five concentration levels (Ti)], the percentage growth is calculated at each of the drug concentrations levels. Percentage growth inhibition is calculated as: [(Ti−Tz)/(C−Tz)]×100 for concentrations for which Ti>/=Tz [(Ti−Tz)/Tz]×100 for concentrations for which Ti<Tz
(§4) Three dose response parameters are calculated for each experimental agent. […] The drug concentration resulting in total growth inhibition (TGI) is calculated from Ti=Tz. […] Values are calculated for each of these three parameters if the level of activity is reached; however, if the effect is not reached or is exceeded, the value for that parameter is expressed as greater or less than the maximum or minimum concentration tested.
(§5) The methods described were used to test compounds 70 and 71 on a panel of sixty cell lines under a screening service provided by the Developmental Therapeutics Program at the National Institutes of Health. Shown in FIG. 1C are 1, RPMI-8226 leukemia cells; 2; NCI-H322M non-small cell lung cancer cells; 3, HT29 colon cancer cells; 4, U251 CNS cancer cells; 5, SK-MEL-28 melanoma cancer cells; 6, SK-OV-3 ovarian cancer cells; 7, RXF 393 renal cancer cells; 8, PC-3 prostate cancer cells; 9, MDA-MB-231 breast cancer cells.

The next test has as its system SF-295. The format is cell-based. Here is the method: as §1, §2, §3, §4, §5
The next test relates to SF-268. The format is cell-based. Here is the method:
as §1, §2, §3, §4, §5

With `NCC(=O)Nc1ccc(-n2nc(C(F)(F)F)cc2-c2ccc3c(ccc4ccccc43)c2)cc1` [Compound 70, 2-Amino-N-{4-[5-(2-phenanthrenyl)-3-(trifluoromethyl)-1H-pyrazol-1-yl]-phenyl}-acetamide], the values for the TGI in the test on SNB-19, with SF-295 and with SF-268 were 3.15E−06, 3.71E−06 and 4.16E−06, respectively. Besides, the “Percent Growth” value is given as −39% with SNB-19 (Log10 Concentration −4.0); −59% in the test on SNB-19 (Log10 Concentration −5.0); 59% in the test on SNB-19 (Log10 Concentration −6.0); 94% in the test on SNB-19 (Log10 Concentration −7.0); 87% with SNB-19 (Log10 Concentration −8.0); −32% in the test with SF-295 (Log10 Concentration −4.0). The “Percent Growth” value in the test on SF-295 (Log10 Concentration −5.0) was −47%; with SF-295 (Log10 Concentration −6.0), 62%; with SF-295 (Log10 Concentration −7.0), 96%; in the test on SF-295 (Log10 Concentration −8.0) it was 94%; in the test on SF-268 (Log10 Concentration −4.0), 26%; with SF-268 (Log10 Concentration −5.0) it was −33%. For the same molecule, the results for the “Percent Growth” value in the test with SF-268 (Log10 Concentration −6.0), in the test on SF-268 (Log10 Concentration −7.0) and in the test on SF-268 (Log10 Concentration −8.0) were 54%, 72% and 84%, respectively.
